# Measured values from patent publication US12220393B2, “Compositions and methods for the treatment of zika viral diseases” (The ProImmune Company LLC, priority 2017, dated 2025).
# Key:
# [1] = system: intracellular glutathione; assay: Intracellular glutathione in JEG-3 cells; assay type: cell-based, human
# Procedure: (§1) FIGS. 6A-6D show effects of inhibition of glutathione biosynthesis on Zika virus replication in JEG-3 cells. […] All experiments were performed in triplicates and the data shown are representative data from multiple independent experiments. Standard error bars were calculated using Microsoft Excel and significance assessments were performed using GRAPHPAD PRISM. * indicates a p-value <0.05 and >0.01; ** indicates a p-value <0.01 and >0.001; and *** indicates a p-value <0.001.
# FIGS. 7A-F show total intracellular GSH concentrations in various cells that were treated with BSO, FFAAP, and a combination of BSO and FFAAP at day 0 and day 2. FIGS. 7A-7C show intracellular GSH concentration in African green monkey (Chlorocebus sp.) Vero cells. […]
# Glutathione Precursors and Glutathione Assays. […] Intracellular glutathione levels (GSSG/GSH) were measured to quantify the levels of newly biosynthesized intracellular glutathione with molar quantities calculated using standard curves prepared with reduced and oxidized glutathione (Enzo Life Sciences, Farmingdale, NY), Standard error of the mean (SEM) was calculated using values from triplicate samples and coefficient of variance was calculated within each sample for each specific treatment group. […] Effective blockade was assessed by measurements of intracellular reduced and oxidized glutathione in the presence of inhibitor.
# [2] = system: Zika virus; assay: Quantification of Zika virus titers in infected JEG-3 cells; assay type: cell-based; details: BSO 200 μM
# Procedure: as §1
# FFAAP treatment of cells. […] Cells infected with Zika virus were treated with the above concentration 1.5 hours post adsorption for quantification of virus titers. For plaque enumeration assay cells were treated with FFAAP at the time of adsorption and the treatment was continued for 3 days in semi-solid medium. For these assays the final concentrations in the cell culture medium of the infected and uninfected cells were 0, 2.5, 5.0, and 10 mM FFAAP from solubilized stock solution prepared for FFAAP. Inhibitory concentration (IC50) was used as per definitions provided by GRAPHPAD Software) to evaluate dose-response curves.
# Approximately 95% sub-confluent Vero cells or JEG-3 cells were infected Zika in a 48-well plate. After 1.5 hours post-adsorption (HPA), virus inoculum was removed and media with or without FFAAP was added to the respective wells. […]
# [3] = system: total intracellular glutathione; assay: Total intracellular glutathione in Zika virus infected Vero cells; assay type: cell-based, African green monkey (Chlorocebus sp.); details: by 48 hours post BSO-treatment
# Procedure: (§2) FIGS. 4A and 4B show effect of FFAAP on total intracellular GSH and Zika virus replication in Zika virus infected Vero cells (ZIKV). Vero cells, grown to approximately 90-95% confluence (mid-log phase), were treated with and grown in the presence of increasing concentrations of FFAAP for 3 days. At each time point, medium was discarded and cells were harvested to measure intracellular concentrations of total GSH. […] All experiments shown were performed in triplicates and the data shown are representative data from multiple independent experiments. Standard error bars were calculated using Microsoft Excel and significance assessments were performed using GRAPHPAD PRISM. * indicates a p-value <0.05 and >0.01; ** indicates a p-value <0.01 and >0.001; and *** indicates a p-value <0.001.
# (§3) FIG. 5A-5D show effects of inhibition of glutathione biosynthesis on Zika virus replication in Vero cells. […] Standard error bars were calculated using Microsoft Excel and significance assessments were performed using GRAPHPAD PRISM. * indicates a p-value <0.05 and >0.01; ** indicates a p-value <0.01 and >0.001; and *** indicates a p-value <0.001.
# (§4) Glutathione Precursors and Glutathione Assays. […] Effective blockade was assessed by measurements of intracellular reduced and oxidized glutathione in the presence of inhibitor.
# [4] = system: Zika virus; assay: Quantification of Zika virus titers in infected Vero cells; assay type: cell-based; details: BSO 200 μM, MOI 0.1
# Procedure: as §2, §3
# FFAAP treatment of cells. […] Cells infected with Zika virus were treated with the above concentration 1.5 hours post adsorption for quantification of virus titers. […]
# [5] = system: total intracellular glutathione (GSH+GSSG); assay: Total intracellular glutathione in uninfected Vero cells; assay type: cell-based, African green monkey (Chlorocebus sp.); details: BSO treatment, initial studies
# Procedure: African green monkey (Chlorocebus sp.) Vero cells, grown to approximately 90-95% confluence (mid-log phase), were treated with and grown in the presence of increasing concentrations of FFAAP for three days. At each time point, medium was discarded and cells were harvested to measure intracellular concentrations of total GSH. All experiments shown were done in triplicate and the data shown are representative data from multiple independent experiments performed. Standard error bars were calculated using MICROSOFT EXCEL and significance assessments were performed using GRAPHPAD PRISM. * indicates a p-value <0.05 and >0.01; ** indicates a p-value <0.01 and >0.001; and *** indicates a p-value <0.001.
# Uninfected Vero cells were treated with 0, 2, 4, 6 mM concentrations of free-form amino acid precursors (FFAAP) for 72 hours. Vero cells infected with Zika virus were treated with the above concentration immediately for quantification of virus titers. […]
# as §4
# To determine the levels of intracellular glutathione in uninfected cells, FFAAP-treated and untreated cells, we quantified GSH/GSSG levels in each cell line over three days. Growth and viability of the cells were also assessed. […]
structure (smiles),measurement,setting,value
"CCCCS(=N)(=O)CC[C@H](N)C(=O)O (stereo partly drawn) [BSO, buthionine-(S,R)-sulfoximine]",intracellular glutathione levels,"[1]; JEG-3 cells, BSO treatment, initial studies",undetectable levels
same,intracellular GSH synthesis,[1]; Zika virus infected JEG-3 cells,blocked intracellular GSH synthesis
same,Zika virus replication on blockage of glutathione biosynthesis,[2],inhibition of Zika virus replication
same,intracellular levels of glutathione,[3],undetectable
same,Zika virus replication in Vero cells treated with BSO,[4],Zika virus replicates even in Vero cells treated with BSO
same,intracellular glutathione levels,[5],undetectable levels
